# According to patent US20140045807A2, “THE USE OF 3-METHOXY-PREGNENOLONE FOR THE PREPARATION OF A DRUG FOR TREATING A TRAUMATIC BRAIN INJURY” (priority 2004, published 2014):
# Experiments:
# [1] = test system: transgenic mice expressing the longest human tau protein isoform; assay: RotaRod test in transgenic mice expressing the longest human tau protein isoform; assay type: in vivo, mouse; details: subcutaneous implant releasing 0.38 mg of steroid per day for 90 days
# Description: FIG. 8: Effect of molecule 43B on the motor incoordination of transgenic mice expressing the longest isoform of human tau protein in their neurons. […] The maximum speed of rotation of the RotaRod drum before the […] falls is a measurement of motor coordination (higher values correspond to a better treatment effect).
# In order to evaluate the therapeutic potential of 43B to treat Alzheimer-type neurodegenerative diseases, a homozygous transgenic line of mice, such as described by Götz (EMBO J. 1995; 14(7):1304-13), can be used.
# These mice express the longest human tau protein isoform. They present symptoms of neurological dysfunction expressed as muscular weakness and a reduction in motor coordination which correlate histologically with the appearance of abnormal neurites and hyperphosphorylated tau proteins as is seen in Alzheimer's disease. This pathological phosphorylation decreases the affinity of tau for microtubules and favors its aggregation.
# A breeding program was undertaken at Bicêtre and genotyping made it possible to select mice homozygous for the transgene. […] These implants released 0.38 mg of steroid per day for 90 days. The progression of motor incoordination was followed by repeated RotaRod tests.
# [2] = test system: Sprague Dawley rats, recognition memory; assay: Novel object recognition test (NOR); assay type: in vivo, rat
# Procedure: FIG. 14: 3-methoxy-PREG (43B) enhanced retention of recognition memory in naïve animals and recovered recognition memory deficits in social isolated rats. (A) Sesame Oil treated rats cannot discriminate between the novel and the familiar object following a 4 h inter trial interval (ITI) time. In contrast, 43B (10 mg/kg subcutaneously) treated rats retain the ability to discriminate between the novel and the familiar object. Mean±SEM, n=11-12 per group. ***p<0.001 vs sesame oil (T-test). (B) Isolated animals treated with sesame oil cannot discriminate between the novel and the familiar object following […], while grouped (control) rats clearly discriminate. […]
# Cognitive dysfunction, including impaired recognition memory, are common features in depressed patients (Egeland et al., Scand. J. Psychol. 2005). […] Recognition memory was assessed using the NOR test which is a two-trial test of recognition memory based on the spontaneous preference of rats for novelty (Ennaceur and Delacour, Behav. Brain. Res. 1988; Bianchi et al., EJN 2006). […] The ability of the animals to discriminate between the novel and the familiar object is then expressed as: D2-INDEX: [novel object (sec)-familiar object (sec)]/[novel object (sec)+familiar object (sec)] […]
smiles,measurement,setting,value
"CO[C@H]1CC[C@@]2(C)C(=CC[C@H]3[C@@H]4CC[C@H](C(C)=O)[C@@]4(C)CC[C@@H]32)C1 [3-methoxy-PREG, 3β-methoxy-pregna-5-ene-20-one]",motor dysfunction (RotaRod),[1],beneficial effect on motor dysfunction
same,"discrimination of novel and familiar object, social isolated rats","[2]; 10 mg/kg subcutaneously 1 h before task, ITI of 1 h",efficiently discriminated between the familiar and the novel object
same,"discrimination of novel and familiar object, naïve animals","[2]; 10 mg/kg subcutaneously immediately after T1, ITI of 4 h",discriminated between the novel and the familiar object
